Test results as given in the supplement of paper PMC10307832.

How the values were obtained:
Assay in all cases: relative viability (nuclei count vs DMSO), 5 days (fraction); higher = more cells survive
TPCA-1 + Luminespib = compound: C1=CC(=CC=C1C2=CC(=C(S2)NC(=O)N)C(=O)N)F [TPCA-1] + CCNC(=O)c1noc(-c2cc(C(C)C)c(O)cc2O)c1-c1ccc(CN2CCOCC2)cc1 [Luminespib] (partner 0.01 µM)
Outline: (§1)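 Lung cancer cell lines were seeded in 1536-well plates and dosed by pin tool the next day, with either a single drug or a fixed anchor-drug dose combined with five library-drug doses (not always all listed) spaced in √10 steps. Five days later, one step fixed the cells and stained their nuclei (final 0.05% Triton X-100, 1% formaldehyde, 1 ug/ml Hoechst), and nuclei were counted on 4× images. Relative viability is the nuclei count in treated wells divided by the count in vehicle wells, and each value is the median of duplicate plates.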

TPCA-1 + AZD7762 = compound: C1=CC(=CC=C1C2=CC(=C(S2)NC(=O)N)C(=O)N)F [TPCA-1] + NC(=O)Nc1cc(-c2cccc(F)c2)sc1C(=O)N[C@H]1CCCNC1 [AZD7762] (partner 0.2 µM)
Outline: as §1

[1] = compound: C1/C(=C\C2=CC=CS2)/C(=O)/C(=C/C3=CC=CS3)/C1 + Nc1nc2[nH]cc(CCc3ccc(C(=O)N[C@@H](CCC(=O)O)C(=O)O)cc3)c2c(=O)[nH]1 [Pemetrexed] (partner 0.2 µM)
Outline: as §1

[2] = compound: C1/C(=C\C2=CC=CS2)/C(=O)/C(=C/C3=CC=CS3)/C1 + CC(=O)Nc1cccc(-n2c(=O)n(C3CC3)c(=O)c3c(Nc4ccc(I)cc4F)n(C)c(=O)c(C)c32)c1 [Trametinib] (partner 0.02 µM)
Outline: as §1

Cell Line	relative viability (TPCA-1 + Luminespib; first compound 0.04 µM)	relative viability (TPCA-1 + Luminespib; first compound 0.1265 µM)	relative viability (TPCA-1 + Luminespib; first compound 0.4 µM)	relative viability (TPCA-1 + Luminespib; first compound 1.265 µM)	relative viability (TPCA-1 + Luminespib; first compound 4 µM)	relative viability (TPCA-1 + AZD7762; first compound 0.04 µM)	relative viability (TPCA-1 + AZD7762; first compound 0.1265 µM)	relative viability (TPCA-1 + AZD7762; first compound 0.4 µM)	relative viability (TPCA-1 + AZD7762; first compound 1.265 µM)	relative viability (TPCA-1 + AZD7762; first compound 4 µM)	relative viability ([1]; first compound 0.2 µM)	relative viability ([1]; first compound 0.6325 µM)	relative viability ([1]; first compound 2 µM)	relative viability ([1]; first compound 6.325 µM)	relative viability ([1]; first compound 20 µM)	relative viability ([2]; first compound 0.2 µM)	relative viability ([2]; first compound 0.6325 µM)	relative viability ([2]; first compound 2 µM)	relative viability ([2]; first compound 6.325 µM)	relative viability ([2]; first compound 20 µM)
NCI-H3122	0.106	0.0887	0.0804	0.0762	0.0832	1.1	0.97	1.04	0.941	0.957	0.195	0.213	0.206	0.191	0.206	0.25	0.222	0.226	0.233	0.251
PC-14	0.133	0.165	0.177	0.146	0.143	0.471	0.305	0.374	0.696	0.43	0.145	0.166	0.136	0.131	0.142	0.792	0.829	0.761	0.696	0.663
EPLC-272H	0.265	0.262	0.443	0.38	0.207	0.368	0.26	0.314	0.26	0.276	0.351	0.468	0.334	0.301	0.373	0.333	0.263	0.3	0.243	0.267
A-427	1.01	0.873	0.935	0.902	0.637	0.881	0.801	0.89	0.811	0.624	1.02	1.04	0.89	0.943	0.941	0.838	0.738	0.887	0.739	0.815
